According to BindingDB's records for doi:10.1021/jm00129a004 (Bristol Myers Squibb, 1989):

Biological target: HMG-CoA reductase (Rattus norvegicus)
Assay: In vitro inhibition of rat liver microsomal HMG-CoA reductase activity

Row | IC50 | Structure (SMILES)
1 | 19 nM | Cn1nnnc1C(/C=C/[C@H]1C[C@H](O)CC(=O)O1)=C(c1ccc(F)cc1)c1ccc(F)cc1
2 | 43 nM | Cn1nnnc1C(/C=C/[C@@H]1C[C@@H](O)CC(=O)O1)=C(c1ccc(F)cc1)c1ccc(F)cc1 [6-[4,4-Bis-(4-fluoro-phenyl)-3-(1-methyl-1H-tetrazol-5-yl)-buta-1,3-dienyl]-4-hydroxy-tetrahydro-pyran-2-one (BMY 22089)]
